# From patent US9394297B2, “Amides as pim inhibitors” (AMGEN INC., priority 2012, dated 2016)
# Columns and labels:
# [1] = test system: KMS-12-BM myeloma cell line; test: Pim KMS-12 cell assay (phospho-BAD S112 / total BAD, MSD); settings: Homo sapiens, KMS-12-BM, read-out: KMS-12-BM IC50 IP, KMS-12-BM cells, phospho-BAD (S112) vs total BAD, 1 hour 50 min with compound
# Pim-1 [2] = molecular target: T1, Pim-1 (Homo sapiens (Human), UniProt P11309); test: Pim enzyme assay (HTRF, 96-well), Pim-1; format: biochemical; settings: full length recombinant Pim-1, biotinylated-BAD (S112) peptide, 10-point curve, 2 h RT, read-out: Pim-1 IC50 IP
# T1 sequence (P11309 whole entry): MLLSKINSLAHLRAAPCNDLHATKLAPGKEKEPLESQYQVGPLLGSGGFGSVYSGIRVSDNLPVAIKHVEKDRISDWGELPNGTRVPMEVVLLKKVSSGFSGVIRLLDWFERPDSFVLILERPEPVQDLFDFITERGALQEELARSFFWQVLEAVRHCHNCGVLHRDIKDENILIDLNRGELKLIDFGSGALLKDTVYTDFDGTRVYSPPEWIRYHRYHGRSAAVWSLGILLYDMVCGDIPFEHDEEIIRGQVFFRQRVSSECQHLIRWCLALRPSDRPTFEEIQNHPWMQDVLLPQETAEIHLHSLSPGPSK
# From the text: (§1) These cDNAs were used as templates in PCR reactions to produce full-length DNA clones of the PIMs. […] PCR products were digested with BclI and EcoRI for Pim-1 and BamHI and EcoRI for Pim-2 and ligated into a modified baculovirus transfer vector (pFastBac1) cleaved with BamHI and EcoRI. For bacterial expression, the same cleaved PCR products encoding Pim-1 or Pim-2 were ligated into a modified E. coli expression vector pET28(a) cleaved with BamHI and EcoRI. Amino-terminal hexahistidine tags followed by a thrombin cleavage site were previously added to the vectors using standard methods of molecular biology.
# (§2) Recombinant baculoviruses expressing Pim-1 or Pim-2 were made using standard methods (Fastbac manual, Invitrogen, Carlsbad, Calif.). […] Cells were harvested by centrifugation and frozen at −80 C. For E. coli expression, cells carrying pET28-His6-Th-Pim-1 or pET28-His6-Th-Pim-2 were picked from a single colony and grown o/n in LB media. The o/n culture was used to inoculate a 2 liter flask with 500 mL media. This was grown o/n and used to inoculate 15-20 liters of Terrific Broth in a New Brunswick Scientific fermentor. The E. coli were grown at 37° C. to and OD600 >1.6. The temperature was dropped to 18° C. and o/n expression was induced with 0.5 mM IPTG. Cells were harvested by centrifugation and frozen at −80° C.
# (§3) The slurry was centrifuged at 1,000×g for 5 min, the supernatant decanted, and the resin suspended in 40 mL of lysis wash buffer (lysis buffer at 0.75 M NaCl). This step was repeated 3× and the resin was transferred to a 2.5 cm glass column. Ten column volumes of wash buffer (0.05 M HEPES, pH 8.0, 0.1 M NaCl, 0.01 M 2-mercaptoethanol, 10%(w/v) glycerol) were applied to the resin followed by 10 column volumes of elution buffer (0.05 M HEPES, pH 8.0, 0.25 M NaCl, 0.01 M 2-mercaptoethanol, 10%(w/v) glycerol, 0.1 M imidazole). Fractions were analyzed by SDS-PAGE and those containing the protein of interest were pooled and concentrated. The concentrated protein was applied to an Amersham Superdex 75 (XK 26/60) column equilibrated in 0.025 M Tris-HCl, pH 7.5, 0.1 M NaCl, 0.01 M 2-mercaptoethanol, 10% (w/v) glycerol. […] Fractions containing the monomeric protein of interest were pooled, concentrated to ˜2 mg/mL, and stored at −80° C.
# (§4) The phosphorylation of biotinylated-BAD (S112) peptide by full length recombinant Pim-1, Pim-2, or Pim-3 protein was detected with streptavidin:Allophycocyanin (APC) conjugate and a europium (Eu) labeled antibody directed against phosphorylated-BAD (S112). […] The fluorescence is directly proportional to the amount of phosphorylated BAD peptide present in the reaction. […] A reference compound was included on each assay plate in order to validate that plate; on one plate of every assay run, two additional reference compounds were included. The final buffer conditions were as follows: 60 mM Hepes, pH 7.0, 0.05% BSA, 2 mM DTT. Incubations were carried out at RT (22° C.) for 2 h for Pim-1, 1 hour and 30 min for Pim-3, and 45 min for Pim-2. The reaction was stopped by the addition of 3 mM EDTA, and fluorescence was measured by an HTRF® Rubystar microplate reader. For each plate, percent of control (POC) values were calculated for each well. Values for the IC50 IP were estimated using a standard 4-parameter logistic model.
# Pim-2 [3] = molecular target: T2, Pim-2 (Homo sapiens (Human), UniProt Q9P1W9); test: Pim enzyme assay (HTRF, 96-well), Pim-2; format: biochemical; settings: full length recombinant Pim-2, biotinylated-BAD (S112) peptide, 10-point curve, 45 min RT, read-out: Pim-2 IC50 IP
# T2 sequence (Q9P1W9 whole entry): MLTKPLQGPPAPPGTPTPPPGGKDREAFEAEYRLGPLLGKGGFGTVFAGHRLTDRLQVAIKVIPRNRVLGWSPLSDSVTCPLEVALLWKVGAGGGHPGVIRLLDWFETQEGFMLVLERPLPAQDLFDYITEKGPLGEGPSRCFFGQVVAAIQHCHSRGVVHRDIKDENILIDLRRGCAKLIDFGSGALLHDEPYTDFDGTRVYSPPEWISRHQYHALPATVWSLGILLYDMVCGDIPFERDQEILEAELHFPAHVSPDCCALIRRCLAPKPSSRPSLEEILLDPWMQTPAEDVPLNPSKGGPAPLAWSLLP
# From the text: as §1, §2, §3, §4
# Pim-1 [4] = molecular target: T1, Pim-1; test: Pim-Mn enzyme assay (HTRF, 384-well), Pim-1; format: biochemical; settings: Pim-1 enzyme 5 pM, ATP 1.5 μM, BAD (S112) 0.5 μM, HTRF, 22-point curve; read-out: Pim-1-Mn IC50 IP
# Pim-2 [5] = molecular target: T2, Pim-2; test: Pim-Mn enzyme assay (HTRF, 384-well), Pim-2; format: biochemical; settings: Pim-2 enzyme 0.5 pM, ATP 1.5 μM, BAD (S112) 0.5 μM, HTRF, 22-point curve; read-out: Pim-2-Mn IC50 IP
IC50 [1],IC50 (Pim-1 [2]),IC50 (Pim-2 [3]),IC50 (Pim-1 [4]),SMILES,IC50 (Pim-2 [5])
427 nM,17.1 nM,12.6 nM,–,"Cc1nc2cccc(-c3cc4c([nH]3)CCNC4=O)c2nc1NC1CCOCC1 [Example 127, 2-(2-methyl-3-((tetrahydro-2H-pyran-4-yl)amino)quinoxalin-5-yl)-6,7-dihydro-1H-pyrrolo[3,2-c]pyridin-4(5H)-one]",–
1280 nM,2.8 nM,12.7 nM,–,"O=C1NCCc2[nH]c(-c3cccc4ccc(Nc5ccc(F)cc5F)nc34)cc21 [Example 8, 2-(2-((2,4-difluorophenyl)amino)quinolin-8-yl)-6,7-dihydro-1H-pyrrolo[3,2-c]pyridin-4(5H)-one]",–
1290 nM,0.3 nM,0.7 nM,–,"O=C1NCCc2[nH]c(-c3cccc4ccc(Nc5cccnc5)nc34)cc21 [Example 38, 2-(2-(3-pyridinylamino)-8-quinolinyl)-1,5,6,7-tetrahydro-4H-pyrrolo[3,2-c]pyridin-4-one]",–
539 nM,0.9 nM,3.9 nM,–,"O=C1NCCc2[nH]c(-c3c(F)ccc4ccc(Nc5ccccc5)nc34)cc21 [Example 227, 2-(7-fluoro-2-(phenylamino)quinolin-8-yl)-6,7-dihydro-1H-pyrrolo[3,2-c]pyridin-4(5H)-one]",–
3850 nM,6.7 nM,17.9 nM,–,"O=C1NCCn2cc(-c3cccc4ccc(Nc5ccccc5)nc34)cc21 [Example 165, 7-(2-(phenylamino)quinolin-8-yl)-3,4-dihydropyrrolo[1,2-a]pyrazin-1(2H)-one]",–
–,110 nM,85.7 nM,53.6 nM,"Cc1nc2cccc(-c3cc4c([nH]3)CCNC4=O)c2nc1NC1CCCNC1=O (racemic) [Example 200, rac-2-(2-methyl-3-((2-oxopiperidin-3-yl)amino)quinoxalin-5-yl)-6,7-dihydro-1H-pyrrolo[3,2-c]pyridin-4(5H)-one]",41.8 nM
–,6.9 nM,17.9 nM,–,"O=C1NCCc2[nH]c(-c3cccc4cnc(C5(c6ccccc6)CC5)nc34)cc21 [Example 244, 2-(2-(1-phenylcyclopropyl)quinazolin-8-yl)-6,7-dihydro-1H-pyrrolo[3,2-c]pyridin-4(5H)-one]",–
–,671 nM,667 nM,–,"O=C1NCCn2cc(-c3cccc4ccc(C(=O)N5CCOCC5)nc34)cc21 [Example 167, 7-(2-(morpholine-4-carbonyl)quinolin-8-yl)-3,4-dihydropyrrolo[1,2-a]pyrazin-1(2H)-one]",–
–,10.6 nM,46.1 nM,–,"Nc1ccc(-c2ccc3cccc(-c4cc5c([nH]4)CCNC5=O)c3n2)c(F)c1 [Example 91, 2-(2-(4-amino-2-fluorophenyl)quinolin-8-yl)-6,7-dihydro-1H-pyrrolo[3,2-c]pyridin-4(5H)-one]",–
–,29 nM,182 nM,–,"C[C@H](Nc1ccc2cccc(-c3cc4c([nH]3)CCNC4=O)c2n1)c1ccccc1 [Example 112, (S)-2-(2-((1-phenylethyl)amino)quinolin-8-yl)-6,7-dihydro-1H-pyrrolo[3,2-c]pyridin-4(5H)-one]",–
–,92 nM,92 nM,90.9 nM,"Cn1cc(-c2ccc3ccc(F)c(-c4cc5c([nH]4)CCNC5=O)c3n2)cn1 [Example 229, 2-(7-fluoro-2-(1-methyl-1H-pyrazol-4-yl)quinolin-8-yl)-6,7-dihydro-1H-pyrrolo[3,2-c]pyridin-4(5H)-one]",–
–,19.8 nM,80.9 nM,–,Cc1cccc(C)c1Oc1ccc2cccc(-c3cc4c([nH]3)CCNC4=O)c2n1 [Example 101],–
–,49.5 nM,143 nM,–,"CS(=O)(=O)c1ccc(-c2ccc3cccc(-c4cc5c([nH]4)CCNC5=O)c3n2)c(F)c1 [Example 86, 2-(2-(2-fluoro-4-(methylsulfonyl)phenyl)quinolin-8-yl)-6,7-dihydro-1H-pyrrolo[3,2-c]pyridin-4(5H)-one]",–
–,15.9 nM,43.7 nM,–,"O=c1[nH]ccc2[nH]c(-c3cccc4ccc(Oc5ccccc5)nc34)cc12 [Example 225, 2-(2-phenoxyquinolin-8-yl)-1H-pyrrolo[3,2-c]pyridin-4(5H)-one]",–
–,93.4 nM,99.8 nM,–,"Cc1nc2cccc(-c3cc4c([nH]3)CCNC4=O)c2nc1N1CCOCC1 [Example 133, 2-(2-methyl-3-morpholinoquinoxalin-5-yl)-6,7-dihydro-1H-pyrrolo[3,2-c]pyridin-4(5H)-one]",–
–,315 nM,636 nM,–,"O=C1NCCc2[nH]c(-c3cccc4ccc(Cl)nc34)cc21 [Example 1, 2-(2-chloroquinolin-8-yl)-6,7-dihydro-1H-pyrrolo[3,2-c]pyridin-4(5H)-one]",–
–,25.3 nM,38.1 nM,–,"O=C1NCCc2[nH]c(-c3cccc4ccc(-c5ccccc5)nc34)cc21 [Example 226, 2-(2-phenylquinolin-8-yl)-6,7-dihydro-1H-pyrrolo[3,2-c]pyridin-4(5H)-one]",–
–,34.2 nM,40.2 nM,–,"O=C1NCCc2[nH]c(-c3cccc4cnc(Oc5ccccc5)nc34)cc21 [Example 236, 2-(2-phenoxyquinazolin-8-yl)-6,7-dihydro-1H-pyrrolo[3,2-c]pyridin-4(5H)-one 2,2,2-trifluoroacetate]",–
–,19 nM,181 nM,–,"C[C@@H](Nc1ccc2cccc(-c3cc4c([nH]3)CCNC4=O)c2n1)c1ccccc1 [Example 111, (R)-2-(2-((1-phenylethyl)amino)quinolin-8-yl)-6,7-dihydro-1H-pyrrolo[3,2-c]pyridin-4(5H)-one]",–
–,38.5 nM,98.4 nM,–,"O=C1NCCc2[nH]c(-c3cccc4ccc(OCc5ccccc5)nc34)cc21 [Example 20, 2-(2-(benzyloxy)quinolin-8-yl)-6,7-dihydro-1H-pyrrolo[3,2-c]pyridin-4(5H)-one]",–
–,99.3 nM,227 nM,–,"Cc1nc2cccc(-c3cc4c([nH]3)CCNC4=O)c2nc1N[C@@H](C)C(N)=O [Example 129, (S)-2-((3-methyl-8-(4-oxo-4,5,6,7-tetrahydro-1H-pyrrolo[3,2-c]pyridin-2-yl)quinoxalin-2-yl)amino)propanamide]",–

SMILES,IC50 [1],IC50 (Pim-1 [2]),IC50 (Pim-2 [3]),IC50 (Pim-1 [4]),IC50 (Pim-2 [5])
"COC(=O)N(c1ccccc1)c1ccc2cccc(-c3cc4c([nH]3)CCNC4=O)c2n1 [Example 46, Methyl (8-(4-oxo-4,5,6,7-tetrahydro-1H-pyrrolo[3,2-c]pyridin-2-yl)-2-quinolinyl)phenylcarbamate]",–,58.1 nM,125 nM,–,–
"O=C1NCCc2[nH]c(-c3cccc4ccc(-c5c(F)cccc5F)nc34)cc21 [Example 231, 2-(2-(2,6-difluorophenyl)quinolin-8-yl)-6,7-dihydro-1H-pyrrolo[3,2-c]pyridin-4(5H)-one]",–,8.1 nM,91.9 nM,–,–
"Cc1nc2cccc(-c3cc4c([nH]3)CCNC4=O)c2nc1N1CCC1 [Example 139, 2-(3-(azetidin-1-yl)-2-methylquinoxalin-5-yl)-6,7-dihydro-1H-pyrrolo[3,2-c]pyridin-4(5H)-one]",–,17.6 nM,16 nM,24.2 nM,19.7 nM
